Assay results taken from patent publication EP0252983B1, “SALTS OF N-(VINYLOXIETHYL)DITHIOCARBAMIC ACID, METHOD OF OBTAINING THEREOF AND […] ON THEM” (priority 1985, dated 1987).

Legend:
[1] = Acute toxicity (LD50) in mice; type: in vivo, weißen Mäusen; details: perorale Applikation an weißen Mäusen
Bacillus = experiment: Bactericidal activity on agar (concentration of complete growth inhibition); type: cell-based; details: % bezogen auf den Wirkstoff; am 5. Tag
Method: (§1) Geprüft wird die bakterizide Aktivität von Kalium-, Natrium-, Zink- und Kupfersalzen der N-(Vinyloxyäthyl)dithiocarbamidsäure gegen Bakterien der Gattungen Bacillus, Micrococcus, Pseudomonas, Escherichia und Xantomonas.
(§2) Man stellt wäßrige Stofflösungen verschiedener Konzentration her, die so berechnet werden, daß die Stoffkonzentration in der Petri-Schale bei der Gabe von 1 ml Lösung in das geschmolzene Nährmedium (45 bis 50 °C) zwischen 0,003 und 25 % (bezogen auf den Wirkstoff) schwankt. Nach 18 bis 24 Stunden bringt man auf die Oberfläche des Nährmediums 0,1 ml wäßrige Suspension eintägiger reiner Kulturen von Bakterien auf und verteilt sie gleichmäßig. In Kontrollschalen verteilt sich 0,1 ml Wasser über die Oberfläche des Nährmediums. Die Inkubation erfolgt bei 37 °C innerhalb von 5 Tagen. Die Wirksamkeit der Stoffe wird nach dem Auftreten des Bakterienwachstums auf der Oberfläche des Nährmediums eingeschätzt. Die Prüfergebnisse sind in der Tabelle 13 dargestellt.

Pseudomonas = experiment: as above; type: cell-based; details: % bezogen auf den Wirkstoff; am 5. Tag
Method: as §1, §2

Micrococcus = experiment: as above; type: cell-based; details: % bezogen auf den Wirkstoff; am 5. Tag
Method: as §1, §2

Escherichia = experiment: as above; type: cell-based; details: % bezogen auf den Wirkstoff; am 5. Tag
Method: as §1, §2

Wurzelfäule von Gurken = experiment: Cucumber root rot test in treated non-sterile soil; type: in vivo
Description: Man nimmt 100 g unsterilen Boden, enthaltend 1 Teil Humus, 1 Teil Rasenboden, 1 Teil Sand, gibt darin ein Präparat, das Zink-bis-(N-vinyloxyäthyldithiocarbamat) ausgehend von 200 kg/ha Wirkstoff enthält.
Das Präparat wird wie folgt hergestellt: Einer gesättigten Lösung des genannten Salzes in Azeton gibt man einige Tropfen Emulgiermittel (hydroxyäthylierte Alkylphenole) zu und verdünnt mit Wasser. Innerhalb von 7 bis 8 Tagen begießt man dann bodenhaltige Gefäße mit Wasser, bis der Boden in einen Zustand gebracht wird, der 60% der vollen Wasseraufnahmekapazität des Feldes beträgt. Nach dieser Zeit erfolgt die Aussaat von Gurkensamen, eingequollen im voraus in einer 0,1%igen KMn04-Lösung innerhalb von 2 Stunden. In jedes Gefäß werden je 10 Samen auf eine Tiefe von 1 bis 1,5 cm gesät. Nach 7 bis 9 Tagen berücksichtigt man die Keimungsfähigkeit von Samen, dann bestimmt man nach 3 Tagen den Befallumfang von Pflanzen durch Wurzelfäule, hervorgerufen durch einen Erregerkomplex. Die Versuche werden viermal wiederholt, als Vergleichsmuster dient Milon. Die Prüfergebnisse zeigt Tabelle 9.

Aspergillus niger = experiment: Mycelial growth inhibition on agar (contact activity); type: cell-based; details: Wirkstoffkonzentration 0,003 %, Würzeagar
Fusarium sambucinum = experiment: as above; type: cell-based; details: Wirkstoffkonzentration 0,003 %; Würzeagar; Tabelle 7
Method: (§3) Die Prüfungen werden nach dem Verfahren zur Ermittlung der Kontaktaktivität durchgeführt. Man verwendet das in Wasser gelöste Kalium-N-(vinyloxyäthyl)dithiocarbamat, führt es in ein Nährmedium ein und vergießt auf Petri-Schalen. Nach 24 Stunden wird mit Pilzmyzelium nach einem Stichverfahren geimpft. Dann temperiert man die Schalen innerhalb von 5 Tagen bei einer zwischen 24 und 26 °C liegenden Temperatur und mißt den Durchmesser von Pilzkolonien, ermittelt den Prozentsatz der Hemmung des Myzelwachstums (S) ausgehend von Angaben am 5. Tag nach der Abbott-Formel [drawing 13] worin dc für den Durchmesser der Pilzkolonien, de für den Durchmesser von Pilzkolonien in der Schale stehen, wo ein die zu prüfenden Stoffe enthaltendes Medium vorhanden ist. Dieses Verfahren zur Ermittlung der mikrobiologischen Aktivität ist in anderen Beispielen verwendet.
(§4) Tabelle 2 zeigt die Angaben für die fungizide Aktivität von Kalium-N-(vinyloxyäthyl)dithiocarbamat und bekannten wirksamen Fungiziden Poly arbazin und TMTD. Der zu prüfende Stoff wurde im Laufe der Versuche in Wasser aufgelöst, und die Kulturen wurden auf einem Kartoffel-Glukose-Nährmedium gezüchtet.

Fusarium moniliforme = experiment: as above; type: cell-based; details: Wirkstoffkonzentration 0,003 %; Würzeagar; Tabelle 7
Method: as §3, §4

Stereum hirsutum = experiment: as above; type: cell-based; details: Wirkstoffkonzentration 0,003 %; Würzeagar; Tabelle 8
Method: as §3

Paecilomyces varioti = experiment: as above; type: cell-based; details: Wirkstoffkonzentration 0,003 %; Würzeagar; Tabelle 8
Method: as §3

Penicillium funiculosum = experiment: as above; type: cell-based; details: Wirkstoffkonzentration 0,003 %; Würzeagar; Tabelle 8
Method: as §3

Larven von Fichtenböcken = experiment: Insecticidal activity, topical application to larvae; type: in vivo, Fichtenböcke; details: 10%ige Lösung
Description: Die hohe insektizide Aktivität von Kalium-N-(vinyloxyathyl)dithiocarbamat und Zink-bis-(N-vinyloxyathyl- dithiocarbamat) wurde in Versuchen an Larven von Fichtenböcken nachgewiesen. Geprüft wurden die 10%igen wäßrigen (oder alkoholischen) Lösungen, welche auf die Kopfbrust von Larven aufgebracht wurden. In Versuchen standen je 20 Larven zur Verfügung. Die Versuche wurden dreimal wiederholt. Die Mortalität wurde nach 1, 24 und 48 Stunden ermittelt. Die insektizide Aktivität der erfindungsgemäßen Stoffe ist bedeutend höher als die von Chlorophos.
Die Prüfungen auf insektizide Aktivität werden an Larven von Fichtenböcken durchgeführt. Geprüft werden eine 10%ige wäßrige Lösung von Kalium-N-(vinyloxyäthyl)dithiocarbamat und eine 10%ige alkoholische Lösung von Zink-bis-N-(vinyloxyathyldithiocarbamat). In jedem Versuch stehen je 20 Larven zur Verfügung. Die Mortalität wird nach 1, 24 und 48 Stunden ermittelt. Die zu prüfenden Lösungen werden auf die Kopfbrust von Larven aufgebracht.

Sphaeropsis malorum = experiment: Mycelial growth inhibition on agar (contact activity); type: cell-based; details: Wirkstoffkonzentration 0,003 %; Würzeagar; Tabelle 7
Method: as §3
(§5) Als Nährmedium dient Würzeagar.

Rhizoctonia solani = experiment: as above; type: cell-based; details: Wirkstoffkonzentration 0,003 %; Würzeagar; Tabelle 7
Method: as §3
Die fungizide Aktivität von Zink-bis-(N-vinyloxyäthyldithiocarbamat) gegen reine Kulturen von Pilzen Fusarium moniliforme, Fusarium sambucinum, Aspergillus niger, Rhizoctonia solani, Cladosporium resinae, Cladosporium cladosporioides, Acremonium cowum, Acremonium charticola, Penicillium chrysogenum, Penicillium charlesii Smith, Penicillium funiculosum, Geotrichum candidum Link, Walrotiela subiculesa, Oidium sp., Paecilomyces varioti, Stereum hirsutum wird gemäß Beispiel 8 untersucht.
as §5

Walrotiela subiculesa = experiment: as above; type: cell-based; details: Würzeagar
Method: as §3
(§6) Die Pilzkulturen werden auf Würzeagar gezüchtet. Ergebnisse, erhalten bei der Prüfung der fungiziden Aktivität gegen reine Kulturen von Mikroorganismen, welche Bioschädigungen hervorrufen, sind in der Tabelle 1 dargestellt.

Acremonium charticola = experiment: as above; type: cell-based; details: Würzeagar
Method: as §3, §6

[2] = test system: Cladosporium cladosporioides; experiment: as above; type: cell-based; details: Würzeagar
Method: as §3, §6

Penicillium charlesii = experiment: as above; type: cell-based; details: Würzeagar
Method: as §3, §6

Geotrichum candidum Link = experiment: as above; type: cell-based; details: Würzeagar
Method: as §3, §6

Cladosporium resinae = experiment: as above; type: cell-based; details: Würzeagar
Method: as §3, §6

Oidium Sp. = experiment: as above; type: cell-based; details: Würzeagar
Method: as §3, §6

Penicillium chrysogenum = experiment: as above; type: cell-based; details: Würzeagar
Method: as §3, §6

Acremonium cowum = experiment: as above; type: cell-based; details: Würzeagar
Method: as §3, §6

[3] = Solubility in water (descriptive); type: physicochemical

With “Zink-bis-(N-vinyloxyäthyldithiocarbamat)” the LD50 [1] was 1120 ± 266 mg/kg, the “Konzentrationen, welche das Bakterienwachstum völlig (100 %) hemmen” value (shortened to “Konzentrationen … (100 %) hemmen”) (Bacillus) was 0,05% and the “Konzentrationen … (100 %) hemmen” value (Pseudomonas) was 0,05%. The “Konzentrationen … (100 %) hemmen” value (Micrococcus) was 0,05%, the “Konzentrationen … (100 %) hemmen” value (Escherichia) was 0,05% and the “Entwicklung von Wurzelschimmel vermindert sich gegenüber Kontrolle” value (Wurzelfäule von Gurken; Aufzucht von Gurken) was “Ilfache”. The “Samenkeimung steigt gegenüber Kontrolle” value (Wurzelfäule von Gurken; Aufzucht von Gurken) was 11%, the “Samenkeimung steigt gegenüber Milon (Vergleichmuster)” value (Wurzelfäule von Gurken; Aufzucht von Gurken) was 15% and the Keimungshäufigkeit in % (Wurzelfäule von Gurken; Gurkensamen, 200 kg/ha Wirkstoff) was 85,1%. For the same substance, the “Entwicklung von Krankheiten in %” value (Wurzelfäule von Gurken; Wurzelfäule von Gurken, 200 kg/ha Wirkstoff) was 4,0%, the Myzelhemmung in % (Aspergillus niger; Tabelle 7) was 90% and the Myzelhemmung in % (Aspergillus niger; Tabelle 8) was 90%. For the same substance, the Myzelhemmung in % (Fusarium sambucinum) was 100%, the Myzelhemmung in % (Fusarium moniliforme) was 100% and the Myzelhemmung in % (Stereum hirsutum) was 100%. The Myzelhemmung in % (Paecilomyces varioti) was 100%, the Myzelhemmung in % (Penicillium funiculosum) was 100% and the “Mortalität von Larven der Fichtenböcke” value (Larven von Fichtenböcken; Wirkungsdauer 1 Stunde) was 10%. For the same substance, the “Mortalität von Larven der Fichtenböcke” value (Larven von Fichtenböcken; Wirkungsdauer 24 Stunden) was 88%, the “Mortalität von Larven der Fichtenböcke” value (Larven von Fichtenböcken; Wirkungsdauer 48 Stunden) was 100% and the Myzelhemmung in % (Sphaeropsis malorum) was 100%. It also gave a Myzelhemmung in % (Rhizoctonia solani) of 100%, a Myzelhemmung in % (Walrotiela subiculesa; Präparatkonzentration 0,0015 %) of 52% and a Myzelhemmung in % (Walrotiela subiculesa; Präparatkonzentration 0,003 %) of 100%. The Myzelhemmung in % (Walrotiela subiculesa; Präparatkonzentration 0,006 %) was 100%, the Myzelhemmung in % (Walrotiela subiculesa; Präparatkonzentration 0,012 %) was 100% and the Myzelhemmung in % (Acremonium charticola; Präparatkonzentration 0,0015 %) was 50%. For the same substance, the Myzelhemmung in % (Acremonium charticola; Präparatkonzentration 0,003 %) was 100%, the Myzelhemmung in % (Acremonium charticola; Präparatkonzentration 0,006 %) was 100% and the Myzelhemmung in % (Acremonium charticola; Präparatkonzentration 0,012 %) was 100%. It also gave a Myzelhemmung in % ([2]; Präparatkonzentration 0,0015 %) of 100%, a Myzelhemmung in % ([2]; Präparatkonzentration 0,003 %) of 100% and a Myzelhemmung in % ([2]; Präparatkonzentration 0,006 %) of 100%. It also gave a Myzelhemmung in % ([2]; Präparatkonzentration 0,012 %) of 100%, a Myzelhemmung in % (Penicillium charlesii; Präparatkonzentration 0,0015 %) of 90% and a Myzelhemmung in % (Penicillium charlesii; Präparatkonzentration 0,003 %) of 100%. It also gave a Myzelhemmung in % (Penicillium charlesii; Präparatkonzentration 0,006 %) of 100%, a Myzelhemmung in % (Penicillium charlesii; Präparatkonzentration 0,012 %) of 100% and a Myzelhemmung in % (Geotrichum candidum Link; Präparatkonzentration 0,0015 %) of 29%. For the same substance, the Myzelhemmung in % (Geotrichum candidum Link; Präparatkonzentration 0,003 %) was 100%, the Myzelhemmung in % (Geotrichum candidum Link; Präparatkonzentration 0,006 %) was 100% and the Myzelhemmung in % (Geotrichum candidum Link; Präparatkonzentration 0,012 %) was 100%. For the same substance, the Myzelhemmung in % (Cladosporium resinae; Präparatkonzentration 0,0015 %) was 37,5%, the Myzelhemmung in % (Cladosporium resinae; Präparatkonzentration 0,003 %) was 100% and the Myzelhemmung in % (Cladosporium resinae; Präparatkonzentration 0,006 %) was 100%. For the same substance, the Myzelhemmung in % (Cladosporium resinae; Präparatkonzentration 0,012 %) was 100%, the Myzelhemmung in % (Oidium Sp.; Präparatkonzentration 0,0015 %) was 80% and the Myzelhemmung in % (Oidium Sp.; Präparatkonzentration 0,003 %) was 100%. It also gave a Myzelhemmung in % (Oidium Sp.; Präparatkonzentration 0,006 %) of 100%, a Myzelhemmung in % (Oidium Sp.; Präparatkonzentration 0,012 %) of 100% and a Myzelhemmung in % (Penicillium chrysogenum; Präparatkonzentration 0,0015 %) of 10%. The Myzelhemmung in % (Penicillium chrysogenum; Präparatkonzentration 0,003 %) was 40%, the Myzelhemmung in % (Penicillium chrysogenum; Präparatkonzentration 0,006 %) was 80% and the Myzelhemmung in % (Penicillium chrysogenum; Präparatkonzentration 0,012 %) was 100%. For the same substance, the Myzelhemmung in % (Acremonium cowum; Präparatkonzentration 0,0015 %) was 40%, the Myzelhemmung in % (Acremonium cowum; Präparatkonzentration 0,003 %) was 100% and the Myzelhemmung in % (Acremonium cowum; Präparatkonzentration 0,006 %) was 100%. For the same substance, the Myzelhemmung in % (Acremonium cowum; Präparatkonzentration 0,012 %) was 100% and the “Löslichkeit in Wasser” value [3] was “wasserunlöslich”.
